From US20230404075A1, “RHIZOBIA SYMBIOSIS PROMOTING AGENT AND SYMBIOSIS PROMOTION METHOD” (TOYOTA JIDOSHA KABUSHIKI KAISHA, priority 2020, published 2023)

Experiments:
[1] = system: Miyakogusa (Lotus japonicus); assay: Root nodule formation (number of infection threads, number of root nodules) in Miyakogusa inoculated with DsRED gene-bearing rhizobium; type: in vivo; details: final concentration 10 μM or 100 μM, vs Non-addition (control)
Procedure: First, caffeic acid (Caffeic Acid, CAS RN: 331-39-5 C0002, Tokyo Chemical Industry Co., Ltd.) was dissolved in ethanol, thereby preparing a 100 mM stock solution. Next, about 300 mL of vermiculite was added to pots, entirely moistened with water, and then sterilized in an autoclave. Miyakogusa (Lotus japonicus) three to four days after sowing was transplanted into the pots, and 50 mL of B&D liquid medium (Broughton and Dilworth, 1971) containing a DsRED gene-bearing rhizobium (OD600=[…]; 1 mL) and caffeic acid (final concentration: 10 μM or 100 μM) was added.
Plants inoculated with the rhizobium were grown in an incubator (26° C.; 16 hr light/8 hr dark). The plants were dug up from the soil after one week and two weeks, and the number of infection threads and the number of root nodules were counted under a fluorescent stereomicroscope.
In FIG. 1, error bars in the graphs represent standard errors, and asterisks (*) indicate data with a significant difference (Dunnett method: p<0.05; n=10) compared to Non-addition (control).

[2] = system: soybean (Glycine max cv. Enrei); assay: Biomass production and root nodule formation in soybean inoculated with rhizobia (Bradyrhizobium japonicum); type: in vivo; details: 100 μM, vs Non-addition (control), Dunnett p<0.01, n=8
Procedure: In this Example, first, seeds of the soybean (Glycine max cv. Enrei) were placed on wet Kimwipes® for three to four days to germinate and then transferred to pots containing vermiculite (about 1.1 L) and grown for about three days in a plant incubator (28° C.; 16 hr light/8 hr dark). Next, a non-addition plot was prepared by adding rhizobia (Bradyrhizobium japonicum; OD600=0.1; 1 mL) to 50 ml of B&D medium. An addition plot was prepared by adding ferulic acid (final concentration: 100 μM) to 50 mL of B&D medium containing rhizobia. They were inoculated into the individual soybean plants. Soybean plants grown in the incubator for one week and two weeks were dug up from the pots, and their growth (aerial part length, underground part length, number of leaves) and number of root nodules were measured.
In FIGS. 4 and 5, error bars in the graphs represent standard errors, and asterisks (**) indicate data with a significant difference (Dunnett method: p<0.01; n=8) compared to Non-addition (control).

[3] = after two weeks, Dunnett p<0.05, n=10

Structure (SMILES)	number of infection threads ([1]; after one week, Dunnett p<0.05, n=10)	number of root nodules [1, 3]	number of infection threads ([1]; after two weeks)	number of root nodules ([2]; soybean grown for one week)	aerial part length ([2]; soybean grown for two weeks)	number of root nodules ([2]; soybean grown for two weeks)	number of root nodules ([1]; after one week)
O=C(O)/C=C/c1ccc(O)c(O)c1 [caffeic acid]	significant increase	tendency for the number of root nodules to increase	–	–	–	–	–
COc1cc(/C=C/C(=O)O)ccc1O [ferulic acid, 3-methoxy-4-hydroxycinnamic acid]	–	significant increases	significant increases	significantly increased	significantly increased	significantly increased	–
COc1cc(/C=C/C(=O)O)cc(OC)c1O [sinapinic acid, 3,5-Dimethoxy-4-hydroxycinnamic Acid]	–	–	significant increase	–	–	–	significant increase
